Reference: the supplement of paper PMC10627819

Columns and labels:
[1] = tested on: S. aureus Newman; test: fitness (endpoint OD595 vs no drug) (fraction); higher = more growth
Method in brief: (§1)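 At 37 °C, bacteria in TSB, LB Lennox or CY were grown in 384-well plates from a starting OD595 of 0.01. OD595 was measured every 30 min for 14 h, with the first reading used as background. Fitness is the optical density at the switch to stationary phase as a fraction of the robust mean of no-drug control wells, capped at 1.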

[2] = tested on: S. aureus DSM 20231; test: as above
Method in brief: as §1

[3] = tested on: B. subtilis 168; test: as above
Method in brief: as §1

[4] = tested on: S. pneumoniae D39V; test: Bliss interaction score (quartile over a dose matrix) (fitness difference); higher = more antagonism (negative = synergy)
Method in brief: (§2)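 Quartiles summarise the Bliss score over technical, biological and donor/recipient replicates, where the score is observed minus expected fitness under a product model. Expected fitness uses single-drug values inferred from combination data. Fitness is OD595 at entry into stationary phase over the plate's robust no-drug mean, capped at 1.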

[5] = tested on: S. aureus Newman; test: as above
Method in brief: as §2

[6] = tested on: S. aureus DSM 20231; test: as above
Method in brief: as §2

[7] = tested on: B. subtilis 168; test: as above
Method in brief: as §2
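Throughout, for Bliss interaction score (quartile over a dose matrix): first quartile when negative (synergy) and third quartile when positive (antagonism).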

CC[C@H]1OC(=O)[C@H](C)[C@@H](O[C@H]2C[C@@](C)(OC)[C@@H](O)[C@H](C)O2)[C@H](C)[C@@H](O[C@@H]2O[C@H](C)C[C@H](N(C)C)[C@H]2O)[C@](C)(O)C[C@@H](C)CN(C)[C@H](C)[C@@H](O)[C@]1(C)O [Azithromycin] + C[C@@H]1O[C@@H]1P(=O)(O)O [Fosfomycin]
fitness
Details | partner 0.781 µg/mL | partner 1.562 µg/mL | partner 3.124 µg/mL | partner 6.248 µg/mL
[1], first compound 0.125 µg/mL | 0.622 | 0.525 | 0.18 | –
[1], first compound 0.25 µg/mL | 0.597 | 0.429 | 0.0915 | –
[1], first compound 0.5 µg/mL | 0.312 | 0.128 | 0.0235 | –
[2], first compound 0.125 µg/mL | 0.728 | 0.615 | 0.509 | –
[2], first compound 0.25 µg/mL | 0.68 | 0.625 | 0.554 | –
[2], first compound 0.5 µg/mL | 0.526 | 0.306 | 0.124 | –
[3], first compound 0.25 µg/mL | – | 0.713 | 0.61 | 0.445
[3], first compound 0.5 µg/mL | – | 0.622 | 0.582 | 0.442

[3], first compound 2 µg/mL, one replicate
Details | fitness
partner 1.562 µg/mL | 0.367
partner 3.124 µg/mL | 0.176
partner 6.248 µg/mL | 0.0795

Details | Bliss interaction score
[4] | 0.0708
[5] | -0.12
[6] | -0.0651
[7] | 0.0745

CC[C@H]1OC(=O)[C@H](C)[C@@H](O[C@H]2C[C@@](C)(OC)[C@@H](O)[C@H](C)O2)[C@H](C)[C@@H](O[C@@H]2O[C@H](C)C[C@H](N(C)C)[C@H]2O)[C@](C)(O)C[C@@H](C)CN(C)[C@H](C)[C@@H](O)[C@]1(C)O [Azithromycin] + C[n+]1ccc(-c2cc[n+](C)cc2)cc1 [Paraquat]
fitness
Details | partner 1.25 µg/mL | partner 2.5 µg/mL | partner 5 µg/mL
[1], first compound 0.125 µg/mL | 0.924 | 0.904 | 0.853
[1], first compound 0.25 µg/mL | 0.882 | 0.845 | 0.789
[1], first compound 0.5 µg/mL | 0.55 | 0.575 | 0.496
[2], first compound 0.125 µg/mL | 0.827 | 0.846 | 0.794
[2], first compound 0.25 µg/mL | 0.814 | 0.75 | 0.823
[2], first compound 0.5 µg/mL | 0.473 | 0.51 | 0.514
[3], first compound 0.25 µg/mL | 0.947 | 0.919 | 0.884
[3], first compound 0.5 µg/mL | 0.906 | 0.866 | 0.759

Details | Bliss interaction score
[4] | 0.0486
[5] | -0.0372
[6] | -0.095
[7] | 0.0865

CC[C@H]1OC(=O)[C@H](C)[C@@H](O[C@H]2C[C@@](C)(OC)[C@@H](O)[C@H](C)O2)[C@H](C)[C@@H](O[C@@H]2O[C@H](C)C[C@H](N(C)C)[C@H]2O)[C@](C)(O)C[C@@H](C)CN(C)[C@H](C)[C@@H](O)[C@]1(C)O [Azithromycin] + Cc1cc(NS(=O)(=O)c2ccc(N)cc2)no1 [Sulfamethoxazol]
fitness
Details | partner 1 µg/mL | partner 2 µg/mL | partner 4 µg/mL
[1], first compound 0.125 µg/mL | 0.849 | 0.88 | 0.86
[1], first compound 0.25 µg/mL | 0.85 | 0.869 | 0.837
[2], first compound 0.125 µg/mL | 0.911 | 0.85 | 0.913
[2], first compound 0.25 µg/mL | 0.85 | 0.839 | 0.869
[2], first compound 0.5 µg/mL | – | 0.545 | 0.516
[3], first compound 0.25 µg/mL | 0.901 | 0.89 | 0.895
[3], first compound 0.5 µg/mL | 0.871 | 0.834 | 0.849

one replicate
Details | fitness
[1], first compound 0.125 µg/mL, partner 8 µg/mL | 0.895
[1], first compound 0.25 µg/mL, partner 8 µg/mL | 0.873
[1], first compound 0.5 µg/mL, partner 8 µg/mL | 0.893
[3], first compound 0.5 µg/mL, partner 0.5 µg/mL | 0.899
[3], first compound 1 µg/mL, partner 0.5 µg/mL | 0.788
[3], first compound 2 µg/mL, partner 0.5 µg/mL | 0.029
[3], first compound 2 µg/mL, partner 1 µg/mL | 0.105
[3], first compound 2 µg/mL, partner 2 µg/mL | 0.126

Details | Bliss interaction score
[4] | 0.071
[5] | -0.0991
[6] | -0.0683
[7] | 0.0534

CC[C@H]1OC(=O)[C@H](C)[C@@H](O[C@H]2C[C@@](C)(OC)[C@@H](O)[C@H](C)O2)[C@H](C)[C@@H](O[C@@H]2O[C@H](C)C[C@H](N(C)C)[C@H]2O)[C@](C)(O)C[C@@H](C)CN(C)[C@H](C)[C@@H](O)[C@]1(C)O [Azithromycin] + Cc1ncc([N+](=O)[O-])n1CCO [Metronidazole]
fitness
Details | partner 0.625 µg/mL | partner 1.25 µg/mL | partner 2.5 µg/mL
[1], first compound 0.125 µg/mL | 0.896 | 0.915 | 0.947
[1], first compound 0.25 µg/mL | 0.831 | 0.906 | 0.823
[1], first compound 0.5 µg/mL | 0.73 | – | 0.67
[2], first compound 0.125 µg/mL | 0.932 | 0.993 | ≥ 1
[2], first compound 0.25 µg/mL | 0.928 | 0.982 | 0.949
[3], first compound 0.25 µg/mL | 0.917 | 0.916 | 0.897
[3], first compound 0.5 µg/mL | – | – | 0.878

fitness, [1], one replicate
Details | first compound 0.125 µg/mL | first compound 0.25 µg/mL | first compound 0.5 µg/mL
partner 0.781 µg/mL | 0.882 | 0.942 | 0.659
partner 1.562 µg/mL | 0.875 | 0.924 | 0.642
partner 3.124 µg/mL | 0.859 | 0.928 | 0.635

Details | Bliss interaction score
[4] | 0.102
[5] | -0.0641
[6] | 0.0787
[7] | 0.0931
